Source: patent US8871715B2, “Use of selenium compounds, especially selenium yeasts for altering cognitive function” (Alltech, Inc., priority 2005, dated 2014)
Marks after values point to notes of the source that are not given here.

Columns and labels:
Assay type in all cases: in vivo, mouse (male C57BL/6J)
[1] = Body weight of mice on selenium diets
From the text: (§1) Animal Care. Male C57BL/6J mice were housed singly and started on the experimental diets described below immediately after weaning (21 days of age). The mice were maintained in the Shared Aging Rodent Facility at the William S. Middleton Memorial Veterans Administration Medical Center (Madison, Wis.). Temperature and humidity were maintained at constant levels. Room light was controlled to provide 12-hr cycles of light and dark.
Experimental diets were created by Harlan Teklad (Madison, Wis.). Selenium content of the diets was determined by Covance Inc. (Madison, Wis.). […]
Thus, it was an object of the present invention to determine whether compositions and methods of the present invention could alter the expression levels (e.g., mRNA levels) of various genes. One group of genes analyzed were genes classically associated with selenium. As described above, the expression levels of genes were analyzed between mice with and without dietary selenium, or, between mice fed different sources of selenium) (See, e.g., Table 1, below).

[2] = system: gene expression in the mouse intestine; test: Gene expression in mouse intestine (microarray) with dietary selenium vs selenium deficient diet; conditions: diet 1 ppm Se for 100 days vs selenium deficient diet
From the text: as §1
(§2) Experimental diets were created by Harlan Teklad (Madison, Wis.). Selenium content of the diets was determined by Covance Inc. (Madison, Wis.). Five (5) animals were included in each of the following treatment groups: a diet deficient in selenium (SD); a diet supplemented with selenomethionine (SM, obtained from Sigma, St. Louis, Mo.) such that the final selenium content of the diet was one (1) part per million; a diet supplemented with sodium selenite (SS, Sigma) such that the final concentration of selenium in this diet was one (1) part per million; or a diet supplemented with the yeast selenium SEL-PLEX (SP, Alltech, Lexington, Ky.), such that the final concentration of selenium in this diet was one (1) part per million. SEL-PLEX. Mice were provided with water and their respective diet ad libitum for 100 days. Diets were stored at the dark at 4° C. and fresh diet was added to feeder twice weekly.
(§3) Tissue sample preparation and microarray analysis. Mice were killed at 100 days of age by cervical dislocation. For intestinal expression studies, the intestine was flushed twice with saline solution and small intestine was measured and divided in three equal segments. A 3-cm region of the middle segment of the small intestine corresponding to the jejunum (˜300 mg of tissue) was cut and rinsed again with physiological saline to completely remove contents, flash frozen in liquid nitrogen and stored at −80° C. For brain (e.g., cerebral cortex) studies, the cerebral cortex was separated from the surrounding brain tissue and was flash frozen in liquid nitrogen and stored at −80° C.
(§4) Total RNA was isolated from using the guanidinium isothiocyanate method of TRIZOL (Life Technologies, Grand Island, N.Y.) and individual samples were used for gene expression profiles. Total RNA was cleaned up by RNeasy Mini kit (Qiagen, Valencia, Calif.). Target RNA was prepared by converting […] total RNA into double-strand cDNA using GeneChip Expression 3′-Amplification Reagents One-Cycle cDNA Synthesis Kit (Affymetrix, Santa Clara, Calif.) with a T7-(dT)24 primer incorporating a T7 RNA polymerase promoter. After cleaning up double-strand cDNA using Genechip Sample Cleanup Module (Affymetrix, Santa Clara, Calif.), biotin-labeled cRNA was synthesized from double-strand cDNA using GeneChip Expression 3′-Amplification Reagents for IVT Labeling (Affymetrix, Santa Clara, Calif.). The biotin-labeled cRNA was cleaned up using Genechip Sample Cleanup Module and was fragmented by heating (35 min at 94° C.).
(§5) Fifteen (15) μg of cRNA fragments were hybridized (16 h at 45° C.) to Mouse Genome 430 2.0 Array (Affymetrix, Santa Clara, Calif.) using GeneChip Hybridization Oven 640. After hybridization, the gene chips were automatically washed and stained with streptavidin-phycoerythrin biotinylated anti-streptavidin using Affymetrix GeneChip Fluidics Station 450. The DNA chips were scanned with Affymetrix GeneChip Scanner 3000 (Affymetrix, Santa Clara, Calif.) to detect the cell signal intensities by laser. All calculations were performed with Affymetrix GeneChip Operating Software (GCOS) version 1.3 after scanning.
(§6) • 1. The spreadsheet containing probe set identifiers and signal intensity values was opened in Microsoft Excel (version 11.1.1 for the Macintosh OS-X operating system) and summary statistics were generated (mean signal intensity for each treatment group, standard error of the mean). Two-tailed t-tests (equal variance) were performed for the following treatment groups: SM vs. SD, SS vs. SD, and SP vs. SD. […]

[3] = system: brain (cerebral cortex) gene expression; test: Gene expression in mouse brain (cerebral cortex, microarray) with dietary selenium vs selenium deficient diet; conditions: diet 1 ppm Se for 100 days vs selenium deficient diet
From the text: as §1, §2, §3, §4, §5, §6

## C[Se]CC[C@H](N)C(=O)O [SeM, selenomethionine]
[1]; mouse, in vivo
  body weights of mice: No significant differences
[2]
  Glutathione Peroxidase 1 gene expression, fold change (FC): 4.9 fold
  Glutathione Peroxidase 3 gene expression, fold change (FC): 4.6 fold
  Glyoxalase 1 (Glo1) expression, fold reduction: not significantly affected
  Growth arrest and DNA-damage-inducible 45 gamma (Gadd45g) expression, FC: −1.5 fold
  LIM homeobox protein 8 gene (Lhx8) expression, fold upregulation: not significantly different
  Neurogenin 3 (Neurog3) expression, fold upregulation: no significant alteration
  Prohibitin (Phb) expression, fold upregulation: 1.6 fold
  SelR (Selenoprotein X1) gene expression, fold upregulation: not significantly affected
  Selenoprotein W (SelW) expression, fold upregulation: not significantly altered
  Thioredoxin Reductase 1 gene expression, fold increase: 1.8 fold
  expression pattern of GST genes (summary in words): no alteration
  selenoprotein N1 (Sepn1) gene expression, fold increase: not significantly affected
  sprouty homolog 2 gene (Spry2) expression, fold reduction: no alteration
  transforming growth factor beta 2 (TGF-β2) expression, fold upregulation: not altered
  type II iodothyronine deiodinase (Dio2) expression, fold down-regulation: no ability to alter
[2]; p<0.05
  Gadd45g1p expression in intestinal tissue (in words): decreased expression
[3]; cerebral cortex
  CORS-26 expression, fold reduction: no alteration
  Complement component 1, q subcomponent, gamma polypeptide, C1qg expression, FC: 1.0 fold
  expression of complement component genes (summary in words): did not provide a statistically significant alteration

## O=[Se](O)O [Sod-sel, sodium selenite]
[1]; diets with 1 ppm Se vs selenium deficient diet, FIG. 1
  body weights of mice: No significant differences
[2]
  Cu chaperone for SOD (CCS) expression, fold enhancement: 1.28 fold
  Glutathione Peroxidase 1 gene expression, fold change (FC): 4.1 fold
  Glutathione Peroxidase 3 gene expression, fold change (FC): 3.5 fold
  Glutathione S-transferase, alpha 3 (Gsta3) expression, FC: −2.3 fold
  Glutathione S-transferase, mu 1 (Gstm1) expression, FC: −2.4 fold
  Glutathione S-transferase, mu 2 (Gstm2) expression, FC: −2.1 fold
  Glutathione S-transferase, mu 3 (Gstm3) expression, FC: −2.7 fold
  Glutathione S-transferase, theta 2 (Gstt2) expression, FC: −1.3 fold
  Growth arrest and DNA-damage-inducible 45 gamma (Gadd45g) expression, FC: −2.0 fold
  SOD1 expression, fold enhancement: 1.92 fold
  SelR (Selenoprotein X1) gene expression, fold upregulation: 1.3 fold
  Selenoprotein W (SelW) expression, fold upregulation: 5.1 fold
  Thioredoxin Reductase 1 gene expression, fold increase: 1.7 fold
  Type 1 iodothyronine deiodinase expression level, fold increase: 2.8 fold
[3]; brain
  Gadd45b expression, FC: −1.39* fold
  Gadd45g1p (Growth arrest and DNA-damage inducible 45 gamma interacting protein) expression, FC: −1.12 fold
  Gst mu 7 (Gstm7) expression, FC: −1.25* fold
  Gst pi 1 (Gstp1) expression, FC: 1.02 fold
  Gst zeta 1 (Gstz1) expression, FC: −1.3 fold
[3]; cerebral cortex
  Amyloid beta (A4) precursor protein-binding, family A, member 1 (Apba1) expression, FC: −1.41 fold
  Amyloid beta (A4) precursor protein-binding, family B, member 1 (Apbb1 or Fe65) expression, FC: −1.32* fold
  Amyloid beta (A4) precursor-like protein (Aplp 1) expression, FC: −1.55* fold
  Cathepsin B expression, FC: −1.13* fold
  Cathepsin D expression, FC: −1.24* fold
  Cathepsin O expression, FC: −1.18 fold
  Cathepsin Z expression, FC: −1.30* fold
  Complement component 1, q subcomponent binding protein, C1qbp expression, FC: 1.11 fold
  Complement component 1, q subcomponent, alpha polypeptide, C1qa expression, FC: −1.18 fold
  Complement component 1, q subcomponent, beta polypeptide, expression, FC: −1.35 fold
  Complement component 1, q subcomponent, gamma polypeptide, C1qg expression, FC: −1.07 fold
  Complement component 1, r subcomponent, C1r expression, FC: −1.29 fold
  Junb expression, FC: −1.59 fold
  Nicastrin expression, FC: −1.67* fold
  Presenilin 1 expression, FC: −1.11 fold
